We go through two molecules from article PMC5408701, “Isomaltooligosaccharide-binding structure of Paenibacillus sp. 598K cycloisomaltooligosaccharide glucanotransferase” (Bioscience Reports, 2017).

The assay addresses T1, PsCITase (core domain) (Paenibacillus sp. 598K, UniProt G9MBW2).
T1 construct: gene cit; core domain 41-739 (N-terminal 40 and C-terminal 235 residues, incl. CBM35-2, removed), N-terminal pET15b His tag (numbered Met21-Met40), E. coli BL21(DE3); full length 972 residues
In words: X-ray crystallography, crystal soaked with […] CI-7, […] A. It is filed as binding.

T1 sequence (G9MBW2 entry or part of it): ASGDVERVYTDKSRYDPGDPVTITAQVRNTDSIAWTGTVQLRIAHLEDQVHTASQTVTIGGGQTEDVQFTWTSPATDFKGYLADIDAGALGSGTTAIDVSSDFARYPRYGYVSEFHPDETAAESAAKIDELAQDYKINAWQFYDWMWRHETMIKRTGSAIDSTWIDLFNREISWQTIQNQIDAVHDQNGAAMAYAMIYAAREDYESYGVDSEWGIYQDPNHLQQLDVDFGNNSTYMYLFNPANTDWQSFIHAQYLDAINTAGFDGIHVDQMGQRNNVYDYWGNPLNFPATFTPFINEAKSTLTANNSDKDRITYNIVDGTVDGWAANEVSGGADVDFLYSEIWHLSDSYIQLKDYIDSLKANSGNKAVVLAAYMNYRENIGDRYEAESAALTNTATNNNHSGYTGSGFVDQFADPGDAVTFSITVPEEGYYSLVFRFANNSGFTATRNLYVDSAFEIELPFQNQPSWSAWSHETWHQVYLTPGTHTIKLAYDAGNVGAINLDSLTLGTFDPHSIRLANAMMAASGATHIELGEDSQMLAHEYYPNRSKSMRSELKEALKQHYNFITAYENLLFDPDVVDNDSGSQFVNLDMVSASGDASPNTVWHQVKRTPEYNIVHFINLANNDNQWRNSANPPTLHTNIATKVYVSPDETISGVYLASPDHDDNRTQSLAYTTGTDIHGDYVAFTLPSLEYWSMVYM

In the case of `O[C@@H]1[C@@H](O)[C@H]2OC[C@H]3O[C@H](OC[C@H]4O[C@H](OC[C@H]5O[C@H](OC[C@H]6O[C@H](OC[C@H]7O[C@H](OC[C@H]8O[C@H](OC[C@@H](O2)[C@H]1O)[C@H](O)[C@@H](O)[C@@H]8O)[C@H](O)[C@@H](O)[C@@H]7O)[C@H](O)[C@@H](O)[C@@H]6O)[C@H](O)[C@@H](O)[C@@H]5O)[C@H](O)[C@@H](O)[C@@H]4O)[C@H](O)[C@@H](O)[C@@H]3O` [CI-7, cycloisomaltoheptaose], the “X-ray crystallography, crystal soaked with 5% CI-7, 2.60 A” value (variable loop (canonical) site of PsCBM35-1, Trp507, on crystallographic two-fold axis, averaged density, soaked CI-7 is hydrolysed at the catalytic site) is recorded as “The bound sugar appeared to be soaked CI-7 with the cyclic sugar chain structure”. For `OC[C@H]1O[C@H](OC[C@H]2O[C@H](OC[C@H]3O[C@H](OC[C@H]4O[C@H](OC[C@H]5O[C@H](OC[C@H]6O[C@H](OC[C@H]7OC(O)[C@H](O)[C@@H](O)[C@@H]7O)[C@H](O)[C@@H](O)[C@@H]6O)[C@H](O)[C@@H](O)[C@@H]5O)[C@H](O)[C@@H](O)[C@@H]4O)[C@H](O)[C@@H](O)[C@@H]3O)[C@H](O)[C@@H](O)[C@@H]2O)[C@H](O)[C@@H](O)[C@@H]1O` (some centres unmarked) [IG-7, isomaltoheptaose], the “X-ray crystallography, crystal soaked with 5% CI-7, 2.60 A” value (catalytic cleft, subsites -7 to -1, hydrolysis product of soaked CI-7, Glc-1 density ambiguous) is listed as “the bound CI-7 was observed as the cleaved linear form like isomaltoheptaose (IG-7)”.
